Test results as given in article PMC8318231, “Rate-of-Kill (RoK) assays to triage large compound sets for Chagas disease drug discovery: Application to GSK Chagas Box” (PLoS Neglected Tropical Diseases, 2021).

Experiments:
[1] = system: TcCYP51; conditions: formerly reported; cited from earlier work
[2] = system: T. cruzi intracellular amastigotes in H9c2 cells; assay: Rate-of-Kill (RoK) high-content imaging assay, amastigotes per cell (AM/CELL) and curve descriptors; type: cell-based, Trypanosoma cruzi; design: key to ME_24h / ME_48h / ME_72h: % reduction in parasite burden (cidal response); t50pct_MCC50 / t50pct_Cmax: unit not given here; conditions: for ME_24h: 24h; for ME_48h: 48h; for ME_72h: 72h; for AM/CELL NORM: sheet figure 4 A; for tlag_Cmax / t50pct_Cmax / t50%_Cmax: at Cmax; for ME_24h (%): maximum effect at 24 h; for ME_24h (%) / ME_48h (%) / ME_72h (%): RoK assay; for ME_48h (%): maximum effect at 48 h; for ME_72h (%): maximum effect at 72 h; for ME 24h (maximum effect at 24 hours, intracellular amastigotes): maximum percentage of parasite burden reduction reached by any concentration
Protocol: For this high-content intracellular imaging assay, H9c2 cells were seeded in 225 cm^2 T- FLASK in DMEM with 10% FBS for 4 h to allow attachment. T. cruzi trypomastigotes, collected at days 5 to 8 after infection from LLC-MK2 parasite infected cultures, were allowed to swim out for 4 h at 37°C from a centrifuged pellet (1,600 x g / 10 min). Trypomastigotes were then collected and counted in a CASY Cell Counter using the 60 μm capillary. Trypomastigotes, in supplemented DMEM, were added to H9c2 cultures in a multiplicity of infection (MOI) of 8 and incubated for 18 h. Cells were washed once with PBS before incubation of the infected H9c2 monolayer with trypsin (Life-Technologies) to detach cells from the flask. Cells were counted in a CASY Cell Counter, using the 150 μm capillary, and their density set at 5 x 10^4 cells/mL in supplemented DMEM. Infected H9c2 were dispensed into 384-well plates at 50 μL per well using a Multidrop Combi dispenser. Control wells used to determine a 100% parasitic growth (full 6th column of each plate) were left untreated, whereas not infected cells were added in the control wells used as 0% parasite growth (or 100% parasite growth inhibition; full 18th column of each plate). The four plates corresponding to each RoK assay were predispensed for the same mother plate. […] Cultures were then fixed and stained with 50 μL per well of a PBS solution containing 4% formaldehyde and 2 μM DRAQ5 DNA dye (BioStatus, UK). Then plates were read in a PerkinElmer Opera Phenix using a 20x objective, 3 fields per well. DRAQ5 signal was detected using 640 nm excitation laser and a 690/50 nm emission detection filter. Automated image analysis was performed with a script developed on Acapella High Content Imaging and Analysis Software (PerkinElmer). Two outputs were provided for each sample well: (1) number of host cells nuclei to determine drug-related cytotoxicity (aka H9c2) and (2) number of amastigotes per cell as infection level measurement (aka AM/CELL). Each output is plotted as a time course for each compound at every concentration. This assay was adapted from Alonso-Padilla et al. and Peña et al..
To identify and classify the different compounds, the number of amastigotes per cell (AM/CELL) raw data obtained in rate of kill assay are normalised using the average of C1 (infected cells) at time 4 hours as 0% effect and the average of C2 (non-infected cells) for each time as 100% effect, according to the following Eq 1: %CIDALRESPONSE=100*[Avg_C14h-RawData]/[Avg_C14h-Avg_C2] (1)
• ME (Maximum Effect) is the maximum percentage of parasite burden reduction reached by any compound concentration. Compounds that decrease the initial parasite load will show a positive value of ME, whereas compounds that allow the progression of infection will render a negative ME value. […] It is calculated for the MCC50 (t50%_MCC50) and for the maximum concentration (t50%_Cmax). […] The value of this parameter is not either interpolated or extrapolated, and it refers to the first experimental time-course point at which a 50% of effect is reached or exceeded. • tlag defines the time elapsed for one particular concentration to reduce parasite burden between two consecutive points at any moment of the time course. It is calculated for the MCC50 (tlag_MCC50) and for the maximum concentration (tlag_Cmax). The value of this parameter is not either interpolated or extrapolated, and it refers to the first experimental time-course point of a positive slope in the normalised plot (i.e. %Cidal_Response). • Cmin_Tox (Minimal CytoToxic Concentration) is the lowest compound concentration that is reducing the number of host mammalian cells below 50% of initial cell density. Cytotoxic compounds may mislead a bona fide antiparasitic action.

SMILES | CYP51 pIC50 [1] | ME_24h ([2]; figure 5) | ME_48h ([2]; figure 5) | ME_72h ([2]; figure 5) | MCC50 ([2]; RoK curve descriptor) | MCCE ([2]; RoK curve descriptor) | AM/CELL NORM ([2]; Time 4) | AM/CELL NORM ([2]; Time 24) | AM/CELL NORM ([2]; Time 48) | AM/CELL NORM ([2]; Time 72) | tlag_Cmax [2] | t50pct_Cmax ([2]; figure 5) | tlag_Cmax ([2]; figure 5) | t50pct_MCC50 ([2]; at MCC50, figure 5) | tlag_MCC50 ([2]; at MCC50, figure 5) | MCCE ([2]; figure 5) | ME_24h (%) [2] | ME_48h (%) [2] | ME_72h (%) [2] | ME 24h (maximum effect at 24 hours, intracellular amastigotes) [2] | also measured
O=C(O)C(F)(F)F.O=c1oc2ccccc2n1C1CCN(Cc2ccccc2-c2cccnc2)CC1 [TCMDC-143389] | 7 | -205.37 | -40.6003 | 54.0373 | 5.6 µM | 0.2 µM | -7.014 | -205.37 | -40.6003 | 17.0901 | 24.0 h | 72 | 24 | 72 | 24 | 0.2058 | -205.4% | -40.6% | 54.0% | -205.37% | t50%_MCC50 ([2]; at MCC50): 72.0 h; tlag_MCC50 ([2]; at MCC50): 24.0 h; MCC50 ([2]; figure 5, in µM): 5.556
COc1cc(C(C)C)c(S(C)(=O)=O)cc1C(=O)N1CCN(c2ccccc2Cl)CC1 [TCMDC-143097] | < 4 | -95.8223 | -1.8208 | 22.9753 | – | 1.9 µM | -12.0353 | -95.8223 | -56.5005 | 8.079 | 24.0 h | 72 | 24 | 72 | 72 | 1.852 | -95.8% | -1.8% | 23.0% | -95.8223% | MCC50 ([2]; figure 5): 50 µM
N#Cc1ccc(S(=O)(=O)N2CCC3(CCN(c4ccccc4)C3=O)CC2)cc1 [TCMDC-143371] | < 4 | -78.0559 | 40.2473 | 62.6058 | 5.6 µM | 1.2 µM | 10.0376 | -56.4995 | 45.4375 | 85.4584 | 36.0 h | 72 | 36 | 72 | 48 | 1.235 | -78.1% | 40.3% | 62.6% | -50.5626% | t50%_Cmax [2]: 72.0 h; t50%_MCC50 ([2]; at MCC50): 72.0 h; tlag_MCC50 ([2]; at MCC50): 24.0 h; MCC50 ([2]; figure 5, in µM): 27.7778
Cc1[nH]nc2c1C(c1ccc(OCc3ccccc3F)cc1)SCC(=O)N2 (stereo not drawn) [TCMDC-143328] | < 4 | 2.825 | -7.539 | -52.7101 | – | 5.6 µM | 25.0577 | -15.4729 | -7.539 | -52.7101 | 24.0 h | 72 | 24 | 72 | 72 | 5.556 | 2.8% | -7.5% | -52.7% | 2.825% | MCC50 ([2]; figure 5): 50 µM
CC(C)Nc1nccc(-c2c(-c3ccc(F)cc3)ncn2C2CCOCC2)n1 [TCMDC-143379] | < 4 | -22.482 | -3.3846 | 36.7081 | – | 0.2 µM | -6.859 | -37.6965 | -3.3846 | 36.7081 | 24.0 h | 72 | 24 | 72 | 72 | 0.2058 | -22.5% | -3.4% | 36.7% | -22.482% | MCC50 ([2]; figure 5): 50 µM
COc1cccc(C(=O)[C@H]2C[C@@H]2CN(Cc2cccnc2)Cc2cccnc2)c1 [TCMDC-143593] | 7.2 | -243.773 | -91.7284 | 36.534 | – | 0.02 µM | -1.514 | -270.363 | -91.7284 | -0.04888 | 24.0 h | 72 | 24 | 72 | 72 | 0.02286 | -243.8% | -91.7% | 36.5% | -243.773% | MCC50 ([2]; figure 5): 50 µM
COc1ccc(-c2nc3ncccc3o2)cc1NC(=O)c1cccs1 [TCMDC-143137] | < 4 | 22.8714 | 76.8526 | 102.262 | 16.7 µM | 5.6 µM | -5.518 | 19.5521 | 76.8526 | 68.9196 | 4.0 h | 48 | 4 | 48 | 4 | 5.556 | 22.9% | 76.9% | 102.3% | 22.8714% | cidality in the RoK assay (in words) [2]: not signs of cidality at 24 hours; ME / cidal effect at 72 hours ([2]; 72 hours): 100%; t50%_Cmax [2]: 48.0 h; t50%_MCC50 ([2]; at MCC50): 48.0 h; tlag_MCC50 ([2]; at MCC50): 4.0 h; MCC50 ([2]; figure 5, in µM): 16.6667
CC(C)c1cc(C(=O)N2CCCC(c3cc4ncccc4[nH]3)C2)on1 (stereo not drawn) [TCMDC-143439] | 4.3 | 43.352 | 76.8723 | 68.3635 | 16.7 µM | 1.0 µM | 3.622 | 43.352 | 76.8723 | 68.3635 | 4.0 h | 48 | 4 | 48 | 4 | 1.852 | 63.1% | 82.0% | 79.3% | 82.7741% | t50%_Cmax [2]: 48.0 h; t50%_MCC50 ([2]; at MCC50): 60.0 h; tlag_MCC50 ([2]; at MCC50): 14.0 h; MCC50 ([2]; figure 5, in µM): 16.6667
